According to a melting point compilation (Tetko et al.; mined from patent text by program, amines drawn as free bases though some values may be those of a salt):

| Compound | melting point |
| --- | --- |
| CCOC(=O)C(=O)c1ccccc1C(=O)c1ccc(Cl)cc1 | 79 to 81 °C |
| CC(=O)Nc1c(C)ccc([N+](=O)[O-])c1C | 171 to 173 °C |
| C=CC(O)C1=C(C)C(=NO)CCC1(C)C (stereo unspecified) | 138 to 142 °C |
| CN(C)c1nc2cc(NC(=O)c3c(C(=O)N4CCC4)cnn3C)ccn2n1 | 240 to 241 °C |
| CCC12CCC3C4=C(CCC3C1CCC2=O)CC(OC)=CC4 (stereo unspecified) | 126 to 143 °C |
| Cc1sc2c(c1CCN1CCC(c3noc4cc(F)ccc34)CC1)CCN(C(=O)c1ccccc1)C2 | 192 to 195 °C |
| CC(C)(C)OC(=O)NC(CC1CCCCC1)C(O)C(O)C(CC1CCCCC1)NC(=O)OC(C)(C)C (stereo unspecified) | 224 to 226 °C |
| CC(C)(C)OC(=O)N1C(=O)[C@@H](O[Si](C)(C)C)[C@H]1c1ccccc1 | 85 to 88 °C |
| O=C(O)CCCCCCCNS(=O)(=O)c1ccc(Br)cc1 | 115 to 116 °C |
| C=CCNC(=S)Nc1cc(=N)n2c(n1)SCCC2 | 196 to 197 °C |
| COC(=O)C(F)(F)C1(C(F)(F)C(=O)OC)OCCO1 | 66.5 to 67.5 °C |
| CCOC(=O)c1c(C)nn2ccc3c(c12)CCO3 | 173 to 174 °C |
| CCOC(=O)CNCc1cc(N(C)C)ccc1[N+](=O)[O-] | 70 to 72 °C |
| CSCCOc1c(-c2ccc(S(C)(=O)=O)cc2)cnn(CC(F)(F)F)c1=O | 103 to 105 °C |
| CCC1N=C(C(N)=O)ON1S(=O)(=O)c1ccccc1Cl (stereo unspecified) | 142 °C |
| CC(C)(C)OC(=O)CN1CCN2C(=O)N(c3cc(Cl)cc(Cl)c3)C(=O)C2(Cc2ccc(Br)cc2)C1 (stereo unspecified) | 74.7 °C |
| CC1Sc2c(C(=O)O)c(=O)c3cc(F)c(N4CCC(O)C4)cc3n21 (stereo unspecified) | 206 to 208 °C |
| CN1C(=O)NC(=O)C1=Cc1cc(OCCCS(=O)(=O)c2ccccc2)ccc1[N+](=O)[O-] | 147 to 158 °C |
| Cc1c(C)c(O)c([Si](C)(C)C)c(C#C[Si](C)(C)C)c1O | 76 to 77 °C |
| Cc1cc(=O)n2cccc(S)c2n1 | 240 to 241 °C |
| Cc1ccc(S(=O)(=O)N=c2ccc(C)cn2-c2cccc(C(F)(F)F)c2)cc1 | 174 °C |
| CC(=O)OCC(CCn1cnc2c(Cl)nc(N)nc21)COC(C)=O | 135 to 137 °C |
| CCS(=O)(=O)CCn1c(=N)sc2cc(C(F)(F)C(F)(F)F)ccc21 | 125 °C |
| O=C(O)c1n[nH]c2c1C=CC(c1ccccc1)(c1ccccc1)C2 | > 260 °C |

| Compound | melting point |
| --- | --- |
| CCN1C(Cl)=NC(C)=NS1(=O)=O | 57 to 59 °C |
| COC[C@@H]1Cc2ccccc2N1C(=O)OC(C)(C)C | 173 to 175 °C |
| NCCN1CCC(Nc2nc3cccnc3n2Cc2ccccn2)CC1 | 151 °C |
| CCc1c(C)sc2[nH]c(=O)c(=O)[nH]c12 | > 300 °C |
| CN(Cc1ccccc1)c1nc(=O)c2cc(C(F)(F)F)cc([N+](=O)[O-])c2s1 | 120 to 124 °C |
| COc1ccc(N(C)C(=O)CN(C(=O)CN2C(=O)c3ccccc3C2=O)c2ccccc2)cc1 | 162 °C |
| O=C1NC(=O)C2(C=Cc3c2csc3Cl)N1 (stereo unspecified) | 224 to 225 °C |
| COc1ccc(C2C(C(=O)/C=C/c3ccccc3)C(=O)CC(c3ccccc3)C2[N+](=O)[O-])cc1 (stereo unspecified) | 108 to 110 °C |
| O=C(c1cc2ccc(F)cc2[nH]1)C12CC3CC(CC(C3)C1)C2 | 242 to 244 °C |
| O=C1c2cccc(Br)c2C(=O)N1CCCCCn1cncn1 | 102 to 104 °C |
| CC(=O)NC(C)COC1CCC(c2cc3ccc(OCC4CC4)cc3o2)CC1 (stereo unspecified) | 104 to 105 °C |
| O=C(c1ccc(-c2cc(Cl)ccc2OCc2ccccc2)cc1C(F)(F)F)N1CCCC1 | 143 to 144 °C |
| CCCc1nc2c(N)nc(C)c(C)c2n1CCCCCS(=O)(=O)c1ccccn1 | 143 to 144 °C |
| COC(=O)c1cc2cc([N+](=O)[O-])ccc2o1 | 168 °C |
| OCCCOc1cc(-c2ccccc2)cc(-c2ccccc2)n1 | 94 °C |
| Cc1nc2cc(F)ccc2c(=O)n1C1CCC(=O)NC1=O (stereo unspecified) | 243 to 245 °C |
| CN(C)C(=O)C(C)(C)CCCCC(=O)CCCCC(C)(C)C(=O)O | 91.5 to 93.5 °C |
| CCOC(=O)N1CCN(c2c(F)c(N)c3c(=O)c(C(=O)O)cn(C4CC4)c3c2F)C(C)C1 (stereo unspecified) | 220 to 225 °C |
| CCOC(=O)NC(=S)SCc1ccc(Cl)cc1 | 80 °C |
| c1ccc(OC2CN(C(c3ccccc3)c3ccccc3)C2)cc1 | 83 to 85 °C |
| CCCCCCc1nc(N)n2nc(-c3ccco3)nc2n1 | 131 to 133 °C |
| O=C(OCCc1ccccc1)ON1C(=O)CCC1=O | 69 to 72 °C |
| NCCCCn1cnc2ccccc21 | 119 to 123 °C |

Further lines, results first:

| melting point | Compound |
| --- | --- |
| > 260 °C | COC(=O)c1ccc(C=Cc2cnc3nc(NC(=O)C(C)(C)C)nc(O)c3c2)[nH]1 |
| 237 to 238 °C | COc1ccc2nc3cc(OC)c(=O)cc-3sc2c1 |
| 159 to 161 °C | CCOc1cc2cc(CO)c(CO)c(-c3ccncc3)c2cc1OCC |
| 131 to 132 °C | CCCOC(=O)c1c(CSc2nccn2C)nc2cc(OC)c(OC)cc2c1-c1ccc(OC)c(OC)c1 |
| 65 to 70 °C | COC(=O)C(C(=O)c1ccc(Cc2cn(C)c3ccc(NC(=O)OC4CCCC4)cc23)c(OC)c1)S(=O)(=O)c1ccccc1 (stereo unspecified) |
| 125 °C | CCOC(=O)c1cc(OCc2ccccc2)c2ccc(C#N)cc2c1 |
| 145 °C | CCOc1ccc(C(=O)Nc2ccc3ccc(OC)nc3n2)cc1 |
| 147 to 148 °C | Cc1nc(-c2ccc3c(c2)OCC32C(=O)N(Cc3ccccn3)c3ccccc32)no1 (stereo unspecified) |
| 242 °C | COc1ccc(-c2nc3ncccc3[nH]2)c2cc(C(C)C)oc12 |
| 135 to 137 °C | Cc1ccc(NC(=O)N(C)C(c2cnc(C(F)F)nc2Cl)C(C)C)cc1 (stereo unspecified) |
| 146 to 147 °C | CCOC(=O)Cc1nc2cc(OC)c(OC)cc2c(-c2ccc(OC)c(OC)c2)c1C(=O)OCC |
| 250 °C | CN(C)Cc1sc(C(c2ccc(Cl)cc2)c2c(Cl)cc(-n3ncc(=O)[nH]c3=O)cc2Cl)nc1-c1ccccc1F (stereo unspecified) |
| 96 to 99 °C | COc1ccc(C(c2ccc(OC)c(OCc3ccccc3)c2)n2cncn2)cc1OCc1ccccc1 |
| 208 to 210 °C | Cc1nc2cnccc2n1-c1ccc(C2=Nc3ccccc3NC(=O)C2)cn1 |
| 126 to 128 °C | c1cnc2cc[nH]c2c1 |
| 217 to 219 °C | COc1ccc(C=CC(=O)C2C(=O)C=C(C)OC2=O)cc1O (stereo unspecified) |
| 132 to 133 °C | CC(C)c1nc2c(OCc3ccccc3)cc(Br)cc2n1C |
| 107 °C | COCc1cnc2c(N)cccc2c1Cl |
| 130 to 132 °C | CCCCCCCCOc1ccc(-c2cnc(-c3ccc(O)c(F)c3F)nc2)cn1 |
| 234 to 235 °C | CCc1cccc(CC)c1NC(=O)C1c2ccccc2COc2ccc(Br)cc21 (stereo unspecified) |
| 230 to 232 °C | COc1ccccc1-n1c(-c2sc(Nc3ccc(Cl)cc3)nc2-c2ccccc2)nc2ccccc2c1=O |
| 160 to 161 °C | COc1ccc(NC(=S)NCCCn2ccnc2)cc1OC |
| 88 to 89 °C | COc1cccc2ccc(C(F)(F)F)nc12 |
| 86 to 88 °C | CC(C)Oc1ccc(CCCOc2cc(CCC(=O)O)n(-c3ccccc3)n2)c(Oc2ncc(C(F)(F)F)cc2Cl)c1 |
